In paper PMC10527387, “The Potential Mechanisms behind Loperamide-Induced Cardiac Arrhythmias Associated with Human Abuse and Extreme Overdose” (Biomolecules, 2023) one finds IC50 data, which are given here for 1 molecule.

Experiment [1] concerns the target T1, Nav1.5 (INa) (Homo sapiens, UniProt Q14524).
T1 construct: gene SCN5A
The experiment in a line: cell-based.

The target in experiment [2] is T2, Cav1.2 (ICa, ICaL) (Homo sapiens, UniProt Q13936).
T2 construct: gene CACNA1C
The experiment in a line: cell-based.

T1 sequence (Q14524 whole entry): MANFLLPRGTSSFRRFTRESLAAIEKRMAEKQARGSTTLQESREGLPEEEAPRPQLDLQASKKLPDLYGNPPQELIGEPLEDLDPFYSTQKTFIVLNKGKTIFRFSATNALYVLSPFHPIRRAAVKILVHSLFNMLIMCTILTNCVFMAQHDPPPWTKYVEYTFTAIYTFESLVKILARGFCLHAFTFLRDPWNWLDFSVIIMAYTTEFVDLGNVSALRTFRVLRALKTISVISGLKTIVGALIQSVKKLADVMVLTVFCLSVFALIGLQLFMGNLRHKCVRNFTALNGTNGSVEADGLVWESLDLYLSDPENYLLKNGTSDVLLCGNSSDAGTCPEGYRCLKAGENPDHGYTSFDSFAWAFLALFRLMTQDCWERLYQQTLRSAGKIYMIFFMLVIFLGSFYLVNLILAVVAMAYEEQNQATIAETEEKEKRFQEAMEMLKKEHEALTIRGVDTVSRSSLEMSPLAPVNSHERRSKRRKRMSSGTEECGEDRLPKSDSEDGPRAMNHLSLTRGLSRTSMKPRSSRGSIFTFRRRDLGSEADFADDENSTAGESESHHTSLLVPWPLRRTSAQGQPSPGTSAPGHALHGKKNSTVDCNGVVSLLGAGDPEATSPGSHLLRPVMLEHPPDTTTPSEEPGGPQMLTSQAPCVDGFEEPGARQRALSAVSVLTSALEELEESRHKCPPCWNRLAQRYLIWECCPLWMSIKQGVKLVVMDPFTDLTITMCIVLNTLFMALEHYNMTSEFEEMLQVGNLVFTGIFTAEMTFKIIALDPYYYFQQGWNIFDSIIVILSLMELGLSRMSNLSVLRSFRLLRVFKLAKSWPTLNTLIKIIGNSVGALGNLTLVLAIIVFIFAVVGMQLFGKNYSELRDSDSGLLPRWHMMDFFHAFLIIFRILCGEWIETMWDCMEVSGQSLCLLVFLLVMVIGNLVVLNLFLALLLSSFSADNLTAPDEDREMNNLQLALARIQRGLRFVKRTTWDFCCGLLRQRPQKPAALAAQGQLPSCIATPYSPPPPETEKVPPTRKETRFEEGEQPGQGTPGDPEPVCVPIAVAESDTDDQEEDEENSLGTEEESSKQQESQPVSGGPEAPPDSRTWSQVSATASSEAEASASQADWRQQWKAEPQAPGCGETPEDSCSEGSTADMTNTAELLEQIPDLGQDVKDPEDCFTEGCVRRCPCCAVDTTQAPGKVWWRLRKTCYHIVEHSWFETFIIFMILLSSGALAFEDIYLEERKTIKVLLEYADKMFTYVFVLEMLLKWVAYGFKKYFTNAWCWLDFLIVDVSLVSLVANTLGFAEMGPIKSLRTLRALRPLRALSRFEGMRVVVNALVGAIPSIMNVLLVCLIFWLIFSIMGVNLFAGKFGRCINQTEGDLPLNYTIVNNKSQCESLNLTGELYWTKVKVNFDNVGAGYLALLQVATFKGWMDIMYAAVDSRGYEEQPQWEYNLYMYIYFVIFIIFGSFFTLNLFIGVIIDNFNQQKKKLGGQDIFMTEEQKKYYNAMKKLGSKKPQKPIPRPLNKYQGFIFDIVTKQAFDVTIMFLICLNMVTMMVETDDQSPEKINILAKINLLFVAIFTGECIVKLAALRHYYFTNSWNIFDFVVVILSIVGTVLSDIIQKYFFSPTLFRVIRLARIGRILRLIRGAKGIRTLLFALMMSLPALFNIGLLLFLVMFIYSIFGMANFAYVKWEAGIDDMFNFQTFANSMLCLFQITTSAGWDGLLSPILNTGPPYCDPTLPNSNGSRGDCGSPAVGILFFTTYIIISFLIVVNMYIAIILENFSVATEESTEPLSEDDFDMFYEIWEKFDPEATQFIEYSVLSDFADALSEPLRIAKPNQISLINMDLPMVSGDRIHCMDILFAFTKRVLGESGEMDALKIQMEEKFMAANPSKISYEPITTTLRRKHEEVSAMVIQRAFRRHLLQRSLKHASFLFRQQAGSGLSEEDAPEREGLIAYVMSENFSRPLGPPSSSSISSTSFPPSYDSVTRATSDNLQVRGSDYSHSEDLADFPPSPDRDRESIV
T2 sequence (Q13936 whole entry): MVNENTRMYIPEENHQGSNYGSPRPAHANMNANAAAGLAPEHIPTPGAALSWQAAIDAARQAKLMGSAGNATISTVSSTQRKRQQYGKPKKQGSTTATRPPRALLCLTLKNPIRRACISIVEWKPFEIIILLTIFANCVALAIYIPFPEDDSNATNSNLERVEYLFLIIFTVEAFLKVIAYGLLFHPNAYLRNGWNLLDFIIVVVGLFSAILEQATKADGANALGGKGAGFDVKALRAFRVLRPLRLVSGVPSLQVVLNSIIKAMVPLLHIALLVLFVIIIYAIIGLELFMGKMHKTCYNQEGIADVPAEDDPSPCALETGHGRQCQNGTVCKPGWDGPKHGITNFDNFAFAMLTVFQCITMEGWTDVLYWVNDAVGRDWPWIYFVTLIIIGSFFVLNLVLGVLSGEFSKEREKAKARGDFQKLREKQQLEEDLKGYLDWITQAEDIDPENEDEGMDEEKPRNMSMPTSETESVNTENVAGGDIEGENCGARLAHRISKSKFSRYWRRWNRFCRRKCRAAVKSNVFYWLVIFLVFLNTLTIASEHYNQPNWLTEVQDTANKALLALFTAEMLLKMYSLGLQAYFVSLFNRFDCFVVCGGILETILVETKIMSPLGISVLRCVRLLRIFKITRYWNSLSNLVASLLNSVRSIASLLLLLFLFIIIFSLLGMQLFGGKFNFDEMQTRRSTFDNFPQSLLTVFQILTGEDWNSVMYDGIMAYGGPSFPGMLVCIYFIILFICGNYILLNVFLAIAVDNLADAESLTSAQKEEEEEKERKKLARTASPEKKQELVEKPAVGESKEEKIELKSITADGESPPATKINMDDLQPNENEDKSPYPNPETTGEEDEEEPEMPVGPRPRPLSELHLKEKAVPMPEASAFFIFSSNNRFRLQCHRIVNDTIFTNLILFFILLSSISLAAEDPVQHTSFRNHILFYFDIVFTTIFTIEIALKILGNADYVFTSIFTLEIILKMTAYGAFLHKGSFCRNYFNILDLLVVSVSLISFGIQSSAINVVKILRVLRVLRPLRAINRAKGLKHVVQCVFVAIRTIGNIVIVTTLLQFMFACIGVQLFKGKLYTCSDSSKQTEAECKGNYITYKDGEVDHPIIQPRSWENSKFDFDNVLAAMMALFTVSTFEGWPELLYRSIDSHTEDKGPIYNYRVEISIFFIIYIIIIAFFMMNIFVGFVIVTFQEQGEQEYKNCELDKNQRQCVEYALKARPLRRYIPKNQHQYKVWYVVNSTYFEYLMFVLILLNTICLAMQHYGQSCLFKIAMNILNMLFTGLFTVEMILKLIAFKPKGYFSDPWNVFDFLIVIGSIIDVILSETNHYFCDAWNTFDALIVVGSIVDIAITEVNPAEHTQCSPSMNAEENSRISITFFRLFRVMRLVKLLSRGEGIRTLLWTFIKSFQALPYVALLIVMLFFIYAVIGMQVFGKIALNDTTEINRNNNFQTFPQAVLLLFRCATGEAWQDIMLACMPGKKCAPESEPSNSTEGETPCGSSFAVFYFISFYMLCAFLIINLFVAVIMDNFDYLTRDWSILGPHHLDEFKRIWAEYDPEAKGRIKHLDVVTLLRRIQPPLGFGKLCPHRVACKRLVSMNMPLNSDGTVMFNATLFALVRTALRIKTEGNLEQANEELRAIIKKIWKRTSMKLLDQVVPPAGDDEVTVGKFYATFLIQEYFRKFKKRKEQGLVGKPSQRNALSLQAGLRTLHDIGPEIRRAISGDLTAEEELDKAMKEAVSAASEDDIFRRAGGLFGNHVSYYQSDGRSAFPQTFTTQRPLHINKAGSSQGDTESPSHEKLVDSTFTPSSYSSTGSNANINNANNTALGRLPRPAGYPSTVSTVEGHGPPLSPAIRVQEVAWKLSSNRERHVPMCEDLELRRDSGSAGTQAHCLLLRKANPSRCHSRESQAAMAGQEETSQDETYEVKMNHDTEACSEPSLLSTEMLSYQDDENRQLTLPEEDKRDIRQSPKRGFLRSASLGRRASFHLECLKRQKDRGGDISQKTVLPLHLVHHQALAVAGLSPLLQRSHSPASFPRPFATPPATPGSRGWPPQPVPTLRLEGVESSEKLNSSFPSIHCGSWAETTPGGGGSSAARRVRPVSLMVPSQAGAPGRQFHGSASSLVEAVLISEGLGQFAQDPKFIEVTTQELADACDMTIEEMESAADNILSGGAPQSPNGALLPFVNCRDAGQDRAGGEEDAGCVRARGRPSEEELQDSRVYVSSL

For the molecule `CN(C)C(=O)C(CCN1CCC(O)(c2ccc(Cl)cc2)CC1)(c1ccccc1)c1ccccc1` [Loperamide], the IC50 in experiment [1] was determined as 526 nM; in experiment [2] it was 4090 nM.

The term IC50 denotes the concentration needed to halve the response being measured. Lower therefore signals inhibition by little substance.
